Test results published in ChEMBL document CHEMBL5058643, “Data for DCP probe BI-2081” (2022).

Assays:
[1] = biological target: Prostaglandin G/H synthase 2 (Homo sapiens) (UniProt P35354); assay: COX-2 Eurofins SafetyScreen44 (BI); settings: Compound concentration 10.0 uM
[2] = biological target: D(2) dopamine receptor (Homo sapiens) (UniProt P14416); assay: D2SH_AGON Eurofins SafetyScreen44 (BI); settings: filed as agonist, Compound concentration 10.0 uM
[3] = biological target: Sodium-dependent dopamine transporter (Homo sapiens) (UniProt Q01959); assay: DATRANS/HUM Eurofins SafetyScreen44 (BI); settings: Compound concentration 10.0 uM
[4] = biological target: Histamine H1 receptor (Homo sapiens) (UniProt P35367); assay: H1/PYRIL/HS Eurofins SafetyScreen44 (BI); settings: Compound concentration 10.0 uM
[5] = biological target: Tyrosine-protein kinase Lck (Homo sapiens) (UniProt P06239); assay: LCK_CE Eurofins SafetyScreen44 (BI); settings: Compound concentration 10.0 uM
[6] = biological target: T1, Muscarinic acetylcholine receptor M2 (Homo sapiens) (UniProt P08172); assay: M2/H Eurofins SafetyScreen44 (BI); settings: filed as antagonist, Compound concentration 10.0 uM
T1 sequence (whole entry): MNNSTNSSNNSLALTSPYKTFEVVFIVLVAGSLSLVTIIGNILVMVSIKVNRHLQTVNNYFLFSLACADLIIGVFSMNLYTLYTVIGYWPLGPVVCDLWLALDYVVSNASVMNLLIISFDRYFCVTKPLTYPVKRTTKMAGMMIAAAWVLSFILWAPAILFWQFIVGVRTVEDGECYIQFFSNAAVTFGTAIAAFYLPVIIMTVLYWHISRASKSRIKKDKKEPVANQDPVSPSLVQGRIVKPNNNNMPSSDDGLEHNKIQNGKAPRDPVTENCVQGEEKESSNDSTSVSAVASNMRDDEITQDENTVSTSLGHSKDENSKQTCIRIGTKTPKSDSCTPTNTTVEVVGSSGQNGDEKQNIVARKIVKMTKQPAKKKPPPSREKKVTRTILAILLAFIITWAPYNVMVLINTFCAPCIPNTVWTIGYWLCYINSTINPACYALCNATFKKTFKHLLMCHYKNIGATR

[7] = biological target: Mu-type opioid receptor (Homo sapiens) (UniProt P35372); assay: MU/H Eurofins SafetyScreen44 (BI); settings: Compound concentration 10.0 uM
[8] = biological target: Sodium-dependent serotonin transporter (Homo sapiens) (UniProt P31645); assay: SLC6A4/H Eurofins SafetyScreen44 (BI); settings: filed as antagonist, Compound concentration 10.0 uM
[9] = biological target: Gastrin/cholecystokinin type B receptor (Homo sapiens) (UniProt P32239); assay: CCKB/H Eurofins SafetyScreen44 (BI); settings: Compound concentration 10.0 uM
[10] = biological target: Peroxisome proliferator-activated receptor alpha (Homo sapiens) (UniProt Q07869); assay: PPAR_ALPHA Eurofins SafetyScreen44 (BI); settings: filed as agonist, Compound concentration 10.0 uM
[11] = biological target: T2, 5-hydroxytryptamine receptor 3A (Homo sapiens) (UniProt P46098); assay: 5HT3/HU Eurofins SafetyScreen44 (BI); settings: Compound concentration 10.0 uM
T2 sequence (whole entry): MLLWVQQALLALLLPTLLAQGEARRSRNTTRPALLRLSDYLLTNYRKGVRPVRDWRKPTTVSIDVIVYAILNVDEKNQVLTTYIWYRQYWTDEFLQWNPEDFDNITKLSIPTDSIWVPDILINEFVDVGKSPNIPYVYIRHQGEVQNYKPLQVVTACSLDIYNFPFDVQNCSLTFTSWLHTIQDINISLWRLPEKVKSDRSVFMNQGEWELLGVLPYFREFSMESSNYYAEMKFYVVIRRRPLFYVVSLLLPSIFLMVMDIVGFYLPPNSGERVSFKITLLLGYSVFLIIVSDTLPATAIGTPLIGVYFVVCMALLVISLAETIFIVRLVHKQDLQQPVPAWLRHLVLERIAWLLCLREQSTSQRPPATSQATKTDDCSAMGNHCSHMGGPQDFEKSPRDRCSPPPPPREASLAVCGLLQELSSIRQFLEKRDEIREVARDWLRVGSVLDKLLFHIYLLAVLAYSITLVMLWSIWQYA

[12] = biological target: T3, Alpha-1B adrenergic receptor (Homo sapiens) (UniProt P35368); assay: ALPHA1B/R Eurofins SafetyScreen44 (BI); settings: Rattus norvegicus; Compound concentration 10.0 uM
T3 sequence (whole entry): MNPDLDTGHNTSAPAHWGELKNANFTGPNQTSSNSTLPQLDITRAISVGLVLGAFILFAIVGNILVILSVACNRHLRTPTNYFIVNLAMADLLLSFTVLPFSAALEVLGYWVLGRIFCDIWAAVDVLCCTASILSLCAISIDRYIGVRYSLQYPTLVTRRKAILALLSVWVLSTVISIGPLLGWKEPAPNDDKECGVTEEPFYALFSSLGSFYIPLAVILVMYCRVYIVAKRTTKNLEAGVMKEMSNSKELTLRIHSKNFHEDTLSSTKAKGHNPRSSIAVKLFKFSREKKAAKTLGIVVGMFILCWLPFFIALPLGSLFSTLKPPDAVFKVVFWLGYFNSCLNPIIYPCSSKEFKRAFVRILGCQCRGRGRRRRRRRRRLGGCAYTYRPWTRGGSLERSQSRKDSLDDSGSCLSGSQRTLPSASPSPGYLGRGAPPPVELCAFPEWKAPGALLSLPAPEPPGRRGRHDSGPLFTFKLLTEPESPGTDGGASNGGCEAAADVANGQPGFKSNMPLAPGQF

[13] = biological target: T4, Voltage-dependent L-type calcium channel subunit alpha-1C (Rattus norvegicus, UniProt P22002); assay: CA+/DHPSI/RA Eurofins SafetyScreen44 (BI); settings: compound concentration 10 uM, read-out: % Ctrl
[14] = biological target: T4, Voltage-dependent L-type calcium channel subunit alpha-1C; assay: CA+/DILSI/RA Eurofins SafetyScreen44 (BI); settings: compound concentration 10 uM, read-out: % Ctrl
[15] = biological target: Epidermal growth factor receptor (Homo sapiens) (UniProt P00533); assay: EGF/HU Eurofins SafetyScreen44 (BI); settings: Compound concentration 10.0 uM
[16] = biological target: Estrogen receptor (Homo sapiens) (UniProt P03372); assay: ERALPHA/H Eurofins SafetyScreen44 (BI); settings: Compound concentration 10.0 uM
[17] = biological target: Gamma-aminobutyric acid receptor subunit alpha-1 (Rattus norvegicus) (UniProt P62813); assay: GABAA MUSCIMOL CENT Eurofins SafetyScreen44 (BI); settings: Compound concentration 10.0 uM
[18] = biological target: Glutamate receptor ionotropic, kainate 1 (Rattus norvegicus) (UniProt P22756); assay: KAINATE/R Eurofins SafetyScreen44 (BI); settings: Compound concentration 10.0 uM
[19] = biological target: Mu-type opioid receptor (Homo sapiens) (UniProt P35372); assay: MU/HU Eurofins SafetyScreen44 (BI); settings: Compound concentration 10.0 uM
[20] = biological target: Acetylcholine receptor subunit alpha (Homo sapiens) (UniProt P02708); assay: NACH/H Eurofins SafetyScreen44 (BI); settings: Compound concentration 10.0 uM
[21] = biological target: Substance-P receptor (Homo sapiens) (UniProt P25103); assay: NK1/HU Eurofins SafetyScreen44 (BI); settings: Compound concentration 10.0 uM
[22] = biological target: Glutamate receptor ionotropic, NMDA 1 (Rattus norvegicus) (UniProt P35439); assay: NMDAGLSI/RA Eurofins SafetyScreen44 (BI); settings: Compound concentration 10.0 uM
[23] = biological target: Protein kinase C alpha type (Mus musculus) (UniProt P20444); assay: PHORBOLE/M Eurofins SafetyScreen44 (BI); settings: Compound concentration 10.0 uM

Sequence of Mu-type opioid receptor (Homo sapiens) (P35372 whole entry): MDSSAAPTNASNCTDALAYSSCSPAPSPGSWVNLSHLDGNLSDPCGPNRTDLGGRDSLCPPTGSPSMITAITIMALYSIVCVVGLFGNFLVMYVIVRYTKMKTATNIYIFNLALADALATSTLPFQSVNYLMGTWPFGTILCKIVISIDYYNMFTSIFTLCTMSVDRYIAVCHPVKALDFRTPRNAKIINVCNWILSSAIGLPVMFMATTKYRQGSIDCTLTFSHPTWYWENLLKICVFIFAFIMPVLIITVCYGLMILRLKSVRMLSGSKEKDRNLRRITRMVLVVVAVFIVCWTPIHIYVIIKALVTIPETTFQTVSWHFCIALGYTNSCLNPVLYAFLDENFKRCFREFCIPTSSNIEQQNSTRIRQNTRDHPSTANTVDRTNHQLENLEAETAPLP
T4 sequence (P22002 whole entry): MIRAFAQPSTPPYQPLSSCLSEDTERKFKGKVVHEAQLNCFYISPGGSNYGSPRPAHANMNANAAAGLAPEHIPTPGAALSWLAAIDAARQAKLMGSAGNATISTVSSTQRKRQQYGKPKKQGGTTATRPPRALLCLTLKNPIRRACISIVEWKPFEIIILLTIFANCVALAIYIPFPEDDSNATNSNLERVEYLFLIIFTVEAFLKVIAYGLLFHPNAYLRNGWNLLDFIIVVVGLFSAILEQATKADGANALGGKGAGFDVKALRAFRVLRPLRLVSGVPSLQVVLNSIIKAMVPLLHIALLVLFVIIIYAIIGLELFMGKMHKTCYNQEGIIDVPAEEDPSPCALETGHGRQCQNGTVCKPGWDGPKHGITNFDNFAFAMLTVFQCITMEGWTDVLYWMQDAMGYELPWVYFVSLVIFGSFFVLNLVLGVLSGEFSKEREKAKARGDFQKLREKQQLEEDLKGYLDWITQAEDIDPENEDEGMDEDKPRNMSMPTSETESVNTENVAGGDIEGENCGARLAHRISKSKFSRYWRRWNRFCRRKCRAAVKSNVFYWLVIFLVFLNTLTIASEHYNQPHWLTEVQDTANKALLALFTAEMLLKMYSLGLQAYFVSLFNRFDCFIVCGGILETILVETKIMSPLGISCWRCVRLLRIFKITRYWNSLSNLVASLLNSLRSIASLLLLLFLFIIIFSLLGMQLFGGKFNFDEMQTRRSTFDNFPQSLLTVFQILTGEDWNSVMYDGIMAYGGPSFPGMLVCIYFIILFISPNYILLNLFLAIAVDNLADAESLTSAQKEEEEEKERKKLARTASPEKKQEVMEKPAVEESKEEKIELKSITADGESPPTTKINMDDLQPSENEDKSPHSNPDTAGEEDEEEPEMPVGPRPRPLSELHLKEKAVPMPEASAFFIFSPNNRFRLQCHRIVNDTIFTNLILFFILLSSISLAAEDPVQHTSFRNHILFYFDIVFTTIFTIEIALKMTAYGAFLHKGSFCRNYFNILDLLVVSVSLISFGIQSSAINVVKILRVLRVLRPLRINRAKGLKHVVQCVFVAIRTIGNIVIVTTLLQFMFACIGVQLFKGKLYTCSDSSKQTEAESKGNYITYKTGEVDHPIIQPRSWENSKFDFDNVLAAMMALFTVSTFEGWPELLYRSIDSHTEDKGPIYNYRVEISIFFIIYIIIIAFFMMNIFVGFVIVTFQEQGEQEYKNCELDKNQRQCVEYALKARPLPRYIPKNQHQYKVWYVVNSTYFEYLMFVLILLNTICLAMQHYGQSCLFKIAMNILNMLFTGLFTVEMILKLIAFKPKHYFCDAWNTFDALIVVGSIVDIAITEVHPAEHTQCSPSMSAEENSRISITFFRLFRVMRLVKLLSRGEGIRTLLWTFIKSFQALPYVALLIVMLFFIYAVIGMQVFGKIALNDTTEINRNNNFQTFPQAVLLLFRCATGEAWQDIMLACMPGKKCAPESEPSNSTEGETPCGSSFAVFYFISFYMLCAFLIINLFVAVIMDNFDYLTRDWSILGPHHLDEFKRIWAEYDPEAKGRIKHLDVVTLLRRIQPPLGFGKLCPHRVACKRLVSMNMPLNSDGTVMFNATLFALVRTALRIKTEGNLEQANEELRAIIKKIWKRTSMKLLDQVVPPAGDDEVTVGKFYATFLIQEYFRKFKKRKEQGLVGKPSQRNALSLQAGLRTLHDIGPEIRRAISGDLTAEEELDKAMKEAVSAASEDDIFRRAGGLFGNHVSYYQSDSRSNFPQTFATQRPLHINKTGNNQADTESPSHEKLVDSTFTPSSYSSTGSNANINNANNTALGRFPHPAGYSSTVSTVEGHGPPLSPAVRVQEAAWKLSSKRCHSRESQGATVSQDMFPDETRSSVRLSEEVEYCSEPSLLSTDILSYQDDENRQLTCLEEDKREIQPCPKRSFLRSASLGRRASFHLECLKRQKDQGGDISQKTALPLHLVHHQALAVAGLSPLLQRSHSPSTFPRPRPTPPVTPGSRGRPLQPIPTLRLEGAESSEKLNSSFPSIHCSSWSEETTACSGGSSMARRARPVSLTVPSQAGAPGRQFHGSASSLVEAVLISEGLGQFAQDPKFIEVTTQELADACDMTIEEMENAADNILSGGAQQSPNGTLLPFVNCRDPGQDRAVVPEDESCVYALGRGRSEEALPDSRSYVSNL
Sequence of Gastrin/cholecystokinin type B receptor (Homo sapiens) (P32239 whole entry): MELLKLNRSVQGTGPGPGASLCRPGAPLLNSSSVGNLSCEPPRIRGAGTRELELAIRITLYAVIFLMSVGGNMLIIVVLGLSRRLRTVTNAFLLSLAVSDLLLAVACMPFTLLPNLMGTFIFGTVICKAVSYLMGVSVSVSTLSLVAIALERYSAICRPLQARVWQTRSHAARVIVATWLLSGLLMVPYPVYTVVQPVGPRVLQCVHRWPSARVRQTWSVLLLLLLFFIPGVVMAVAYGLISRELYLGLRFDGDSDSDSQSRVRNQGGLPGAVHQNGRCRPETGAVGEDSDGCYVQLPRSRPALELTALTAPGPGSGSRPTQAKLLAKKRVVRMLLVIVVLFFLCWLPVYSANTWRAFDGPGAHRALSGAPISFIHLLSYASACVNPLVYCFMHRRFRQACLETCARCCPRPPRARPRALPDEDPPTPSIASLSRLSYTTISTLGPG
Sequence of Tyrosine-protein kinase Lck (Homo sapiens) (P06239 2-509 limits assumed): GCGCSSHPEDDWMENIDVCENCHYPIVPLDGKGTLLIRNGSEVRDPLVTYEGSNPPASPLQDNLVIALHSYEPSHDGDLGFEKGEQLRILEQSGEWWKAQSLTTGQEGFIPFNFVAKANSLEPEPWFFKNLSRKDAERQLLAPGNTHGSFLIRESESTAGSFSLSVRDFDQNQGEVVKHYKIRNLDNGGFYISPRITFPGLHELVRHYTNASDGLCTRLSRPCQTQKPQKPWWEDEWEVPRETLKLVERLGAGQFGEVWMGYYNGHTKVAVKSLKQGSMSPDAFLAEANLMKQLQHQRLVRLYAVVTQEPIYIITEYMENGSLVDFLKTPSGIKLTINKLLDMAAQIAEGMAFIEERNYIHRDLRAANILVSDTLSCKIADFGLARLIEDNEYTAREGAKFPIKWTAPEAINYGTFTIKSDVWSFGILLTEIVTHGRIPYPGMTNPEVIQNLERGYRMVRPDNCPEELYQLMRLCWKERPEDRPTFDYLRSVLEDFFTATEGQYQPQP
Sequence of D(2) dopamine receptor (Homo sapiens) (P14416 whole entry): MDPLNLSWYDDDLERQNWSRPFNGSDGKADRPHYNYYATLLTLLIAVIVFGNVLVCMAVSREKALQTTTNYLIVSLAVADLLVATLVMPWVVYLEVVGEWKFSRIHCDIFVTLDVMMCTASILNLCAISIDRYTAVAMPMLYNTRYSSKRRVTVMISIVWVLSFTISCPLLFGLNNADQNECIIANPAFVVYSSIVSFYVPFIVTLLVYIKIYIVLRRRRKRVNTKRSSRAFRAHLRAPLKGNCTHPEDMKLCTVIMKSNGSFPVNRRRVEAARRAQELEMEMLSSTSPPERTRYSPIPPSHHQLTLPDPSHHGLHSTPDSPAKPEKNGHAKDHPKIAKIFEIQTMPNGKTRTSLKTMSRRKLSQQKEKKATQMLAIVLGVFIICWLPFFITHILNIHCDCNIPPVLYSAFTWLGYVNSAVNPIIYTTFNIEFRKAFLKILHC
Sequence of Substance-P receptor (Homo sapiens) (P25103 whole entry): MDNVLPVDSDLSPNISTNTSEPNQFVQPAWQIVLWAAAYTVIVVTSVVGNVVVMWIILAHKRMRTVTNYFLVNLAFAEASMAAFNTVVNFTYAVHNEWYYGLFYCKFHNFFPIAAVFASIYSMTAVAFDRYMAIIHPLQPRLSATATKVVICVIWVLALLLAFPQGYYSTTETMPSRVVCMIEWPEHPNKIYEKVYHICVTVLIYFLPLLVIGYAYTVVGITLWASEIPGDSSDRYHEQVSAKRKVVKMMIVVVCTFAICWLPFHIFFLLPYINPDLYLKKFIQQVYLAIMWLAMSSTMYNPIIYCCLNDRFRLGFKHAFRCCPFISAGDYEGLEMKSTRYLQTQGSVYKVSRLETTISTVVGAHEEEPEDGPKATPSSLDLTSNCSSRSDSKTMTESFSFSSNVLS

For `COCCCS(=O)(=O)c1cc(C)c(-c2ccc(F)c3c2CC[C@H]3Oc2ccc3c(c2)OC[C@H]3CC(=O)O)c(C)c1`, the residual activity [1] was 81%, the residual activity [2] was 88% and the residual activity [3] was 84%. The residual activity [4] was 87%, the residual activity [5] was 77% and the residual activity [6] was 112%. For the same compound, the residual activity [7] was 75% and the residual activity [8] was 109%.

Work on `Cc1cc(OCCC(C)(C)O)cc(C)c1-c1ccc(F)c2c1CC[C@H]2Oc1ccc2c(c1)OC[C@H]2CC(=O)O` yielded a residual activity [9] of 96%, a residual activity [10] of 119% and a residual activity [11] of 100%. The residual activity [12] was 114%, the activity at 10 µM [13] was 90% (not active) and the activity at 10 µM [14] was 100% (not active). It also gave a residual activity [15] of 99%, a residual activity [16] of 103% and a residual activity [17] of 87%. For the same compound, the residual activity [18] was 117%, the residual activity [19] was 76% and the residual activity [20] was 115%. The residual activity [21] was 113%, the residual activity [22] was 86% and the residual activity [23] was 84%.
